{
  "source": "patent US5463127A",
  "about": "“Process for preparation of halohydroxypropyl-trialkylammonium halides” (The Dow Chemical Company, priority 1995, dated 1995)",
  "origin": "cited, not measured here",
  "conditions": "aqueous solution",
  "note": "Where two headings read alike, the source gives them in different places.",
  "data": [
    {"smiles": "CN(C)C", "note": "[Trimethylamine, trimethylamine]", "values": [
      {"measurement": "pKa of Trimethylamine", "setting": "0 °C.", "result": 10.355},
      {"measurement": "pKa of Trimethylamine", "setting": "10 °C.", "result": 10.128},
      {"measurement": "pKa of Trimethylamine", "setting": "20 °C.", "result": 9.907},
      {"measurement": "pKa of Trimethylamine", "setting": "30 °C.", "result": 9.692},
      {"measurement": "pKa of Trimethylamine", "setting": "40 °C.", "result": 9.477},
      {"measurement": "pKa of Trimethylamine", "setting": "50 °C.", "result": 9.270}
    ]}
  ]
}
